# Laboratory results published in article PMC5486949 (SLAS discovery, 2017).
# Experiments:
# Assay type in all cases: cell-based, human
# [1] = system: PGC/ERR cell line (HEK293T); experiment: Cell viability assay multiplexed with PGC/ERR antagonist mode assay; details: Homo sapiens, HEK-293T, read-out: PGC-1α/ERRα (Viability) IC50
# ERR cell line (HEK293T) = experiment: Cell viability assay multiplexed with ERR antagonist mode assay; details: Homo sapiens, HEK-293T, read-out: ERRα (Viability) IC50
# PGC-1α/ERRα = experiment: PGC/ERR luciferase reporter gene assay, antagonist mode; details: Homo sapiens
smiles,measurement,setting,value
C=C(C)[C@H]1Cc2c(ccc3c2O[C@@H]2COc4cc(OC)c(OC)cc4[C@@H]2C3=O)O1 [Rotenone],IC50,[1],6680 nM
same,IC50,ERR cell line (HEK293T),1330 nM
same,AC50,PGC-1α/ERRα; read-out: AC50 PGC/ERR ↓,74.1 nM
same,IC50,PGC-1α/ERRα; read-out: PGC-1α/ERRα (Antagonist) IC50,40 nM
